One assay deals with neo1Δ/NEO1 strain. Description: Growth of the neo1Δ/NEO1 strain. The note with it: OD600 for 24 hours. The class given is cell-based, yeast.
The test system of assay [1] is yeast heterozygous and homozygous deletion strains. Put plainly: HIP/HOP chemogenomic fitness profiling. In kind it is cell-based. The conditions noted are these: for Chemogenomic response signature induced: HIPHOP profile.
The test system of assay [2] is immortalized human leukemia cells. Put plainly: Mitochondrial effects in immortalized human leukemia cells. In kind it is cell-based. The note with it: fig. S13.

SMILES strings stand for the structures.

As for `CC/C(=C(\c1ccccc1)c1ccc(OCCN(C)C)cc1)c1ccccc1` [Tamoxifen], the “Induction of NEO1 haploinsufficiency” value in the assay with neo1Δ/NEO1 strain is “Tamoxifen-induced NEO1 haploinsufficiency”.

On to `CO/C1=C\C(C)=C\[C@@H](C)[C@@H](O)[C@@H](C)C/C(C)=C/C=C/[C@H](OC)[C@@H]([C@@H](C)[C@@H](O)[C@H](C)[C@@]2(O)C[C@@H](O)[C@H](C)[C@@H](C(C)C)O2)OC1=O` [bafilomycin A], for which the “Effect on tamoxifen-induced NEO1 haploinsufficiency” value in the assay with neo1Δ/NEO1 strain is given as “rescued”.

As to `CCCCNC(=O)n1c(NC(=O)OC)nc2ccccc21` [benomyl], the “Chemogenomic response signature induced” value in assay [1] is “induced a signature containing tubulin biogenesis and SWR1 complex genes”.

As to `OC(Cn1cncn1)(Cn1cncn1)c1ccc(F)cc1F` [fluconazole], the “HIP hit / strain with largest fitness defect” value in assay [1] (HIP profile) is reported as “Erg11Δ/ERG11 strain represents a “hit””.

As for `COC(=O)Nc1nc2ccc(C(=O)c3cccs3)cc2[nH]1` [nocodazole], in assay [1], the “Chemogenomic response signature induced” value was “induced a signature containing tubulin biogenesis and SWR1 complex genes”.

`Oc1ccc(Cl)cc1Cc1cc(Cl)cc(Cc2cc(Cl)ccc2O)c1O` [trichlorophene]: in assay [2], the “Generation of mitochondrial reactive oxygen species” value is “increased” and the Reserve oxygen capacity entry is “reduction”. In assay [1], the “Chemogenomic response signature induced” value is “induced mitochondrial stress”.

Values taken from paper PMC4254748 (Science (New York, N.Y.), 2014).
